Reference: patent US20250368678A1, “19-NOR-C3,3-DISUBSTITUTED C21-AZACYCLO-S[…] AND METHOD FOR USING SAME” (SHANDONG LUYE PHARMACEUTICAL CO., LTD., priority 2022, published 2025)

What was measured:
[1] = In vitro liver microsomal stability assay, rat; format: in vitro ADME
Outline: (§1)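 Test compound at […] was incubated at 37° C with 0.5 mg/mL rat or human liver microsomes, 1 mM NADPH and 3 mM MgCl2, in triplicate, sampled 0–60 min. Remaining parent was quantified by LC-MS/MS, giving half-life and microsomal and hepatic intrinsic clearance.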

SD rats = assay: Loss of righting reflex in SD rats, intragastric administration; format: in vivo; conditions: for rate of loss of righting reflex: within 4 h
Excerpt: To determine the threshold for the loss of righting reflex in SD rats after intragastric administration of compound 41 in order to evaluate the sedative effect and therapeutic safety window of compound 41.
Male SD rats weighing 180-200 g, as experimental animals, were acclimatized for 7 days after arriving at the animal facility and were randomly divided into groups based on weight one day before experimentation. The rats were fasted overnight before experimentation but had access to water. Doses of compound 41 were designed in a 0.8-fold gradient, and the doses were set at 39 mg/kg, 31.25 mg/kg, 25 mg/kg, 20 mg/kg, and 16 mg/kg, with 10 rats in each group. Observations were made on the loss of righting reflex within 4 h of intragastrically administering the compound to the rats.

[2] = target: T1, α4β3δ GABA receptors (α4β3δ-HEK-FlpIn-TRex stable cell strain) (Homo sapiens, UniProt P28472+P48169); assay: Whole-cell patch clamp, extrasynaptic functional activity (positive allosteric regulation of GABA-induced current); format: cell-based; conditions: patch clamp -60 mV, GABA at EC10-20, α4β3δ-HEK-FlpIn-TRex cells
T1 construct: expressed in transfected cells
Outline: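 Tetracycline-induced stable lines were used: α4β3δ in HEK-FlpIn-TRex and α1β2γ2 in CHO-TRex. Whole-cell patch clamp was run at −60 mV with GABA at EC10-20 ([…]) and compound perfused for 30 s before GABA, with extracellular pH 7.4. Fold increase in GABA current over ≥5 concentrations on ≥3 cells gave EC50 and Emax by Hill fit.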

[3] = In vitro liver microsomal stability assay, human; format: in vitro ADME
Outline: as §1

T1 sequence (P48169 36-554): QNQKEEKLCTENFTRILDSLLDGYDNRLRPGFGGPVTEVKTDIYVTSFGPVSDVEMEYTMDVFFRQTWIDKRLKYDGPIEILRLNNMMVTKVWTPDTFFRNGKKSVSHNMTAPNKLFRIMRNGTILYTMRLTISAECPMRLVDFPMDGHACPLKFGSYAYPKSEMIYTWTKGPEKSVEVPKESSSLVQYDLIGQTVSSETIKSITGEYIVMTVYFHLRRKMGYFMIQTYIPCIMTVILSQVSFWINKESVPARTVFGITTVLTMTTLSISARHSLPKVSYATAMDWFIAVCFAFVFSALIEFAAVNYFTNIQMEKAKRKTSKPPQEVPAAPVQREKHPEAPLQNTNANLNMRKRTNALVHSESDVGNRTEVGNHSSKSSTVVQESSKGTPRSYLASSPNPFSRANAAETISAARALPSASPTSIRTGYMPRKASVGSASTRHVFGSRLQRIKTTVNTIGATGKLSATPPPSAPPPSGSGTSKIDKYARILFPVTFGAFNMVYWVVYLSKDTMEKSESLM
T1 sequence (P28472 26-473): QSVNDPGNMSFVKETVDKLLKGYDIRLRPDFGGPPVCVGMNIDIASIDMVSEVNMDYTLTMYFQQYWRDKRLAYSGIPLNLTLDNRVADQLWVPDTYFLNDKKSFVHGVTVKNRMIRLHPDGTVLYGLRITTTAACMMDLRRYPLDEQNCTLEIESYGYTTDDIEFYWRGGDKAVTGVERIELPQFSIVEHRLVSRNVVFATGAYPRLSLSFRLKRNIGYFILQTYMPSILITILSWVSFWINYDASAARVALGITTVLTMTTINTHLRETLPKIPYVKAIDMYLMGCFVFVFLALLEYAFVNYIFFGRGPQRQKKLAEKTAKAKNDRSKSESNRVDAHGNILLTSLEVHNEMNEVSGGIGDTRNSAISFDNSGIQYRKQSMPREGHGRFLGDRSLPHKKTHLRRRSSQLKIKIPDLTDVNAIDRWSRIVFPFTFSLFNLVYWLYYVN
T1 sequence (O14764 25-452 partner): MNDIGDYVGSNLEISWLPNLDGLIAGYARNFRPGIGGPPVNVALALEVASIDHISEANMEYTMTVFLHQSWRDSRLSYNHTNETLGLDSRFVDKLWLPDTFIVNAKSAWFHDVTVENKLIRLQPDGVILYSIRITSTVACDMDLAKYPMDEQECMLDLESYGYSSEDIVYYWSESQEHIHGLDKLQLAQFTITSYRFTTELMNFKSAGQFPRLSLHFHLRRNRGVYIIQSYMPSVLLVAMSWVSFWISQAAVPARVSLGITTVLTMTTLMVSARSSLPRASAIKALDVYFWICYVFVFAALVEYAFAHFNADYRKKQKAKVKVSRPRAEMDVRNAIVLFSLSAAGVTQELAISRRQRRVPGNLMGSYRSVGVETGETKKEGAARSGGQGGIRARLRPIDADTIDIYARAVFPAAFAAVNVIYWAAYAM

With `C[C@@]1(O)CC[C@H]2[C@H](CC[C@@H]3[C@@H]2CC[C@]2(C)[C@@H](C(=O)Cn4cnn(-c5cc(F)nc(F)c5)c4=O)CC[C@@H]32)C1` [Compound 41] the CLint scaled at 1 µM ([1]; Rat liver microsomes) was 23 mL/min/kg, the half-life at 1 µM ([1]; Rat liver microsomes) was 1.8 h and the “Remaining amount % at 60 min” value ([1]; Rat liver microsomes 0.5 mg/mL, NADPH) was 68.3%. The microsomal CLint at 1 µM ([1]; Rat liver microsomes, read-out: CLint(mic)) was 13 µL/min/mg, the “rate of loss of righting reflex” value (SD rats; 16 mg/kg intragastric, SD rats) was 0% and the “rate of loss of righting reflex” value (SD rats; 20 mg/kg intragastric, SD rats) was 0%. For the same molecule, the “rate of loss of righting reflex” value (SD rats; 25 mg/kg intragastric, SD rats) was 50%, the “rate of loss of righting reflex” value (SD rats; 31.25 mg/kg intragastric, SD rats) was 90% and the “rate of loss of righting reflex” value (SD rats; 39 mg/kg intragastric, SD rats) was 100%. The “threshold for loss of righting reflex relative to effective dose for the antiepileptic convulsion effect” value (SD rats; intragastric, 20 mg/kg vs 3.5 mg/kg, rats) was 5.7 times, the “therapeutic safety window (in words)” value (SD rats; intragastric, SD rats) was “relatively wide” and the “threshold dose for the loss of righting reflex” value (SD rats; intragastrically administered, SD rats) was 20 mg/kg. For the same molecule, the EC50 [2] was 67 nM, the Emax [2] was 754% and the CLint scaled at 1 µM ([3]; Human liver microsomes) was < 6.75 mL/min/kg. For the same molecule, the half-life at 1 µM ([3]; Human liver microsomes) was > 3.1 h, the “Remaining amount % at 60 min” value ([3]; Human liver microsomes 0.5 mg/mL, NADPH) was 98.2% and the microsomal CLint at 1 µM ([3]; Human liver microsomes, read-out: CLint(mic)) was < 7.5 µL/min/mg.
